Results from US11478457B2, “Castration-resistant prostate cancer” (priority 2015, dated 2022).
Substitutions are numbered along the chain they refer to. Blank lines part the entries; values can stand above or below the compound they belong to.

What was measured:
[1] = target: T1, UDP-glucose dehydrogenase (Homo sapiens, UniProt O60701); assay: High throughput screening for inhibitors of UDP-glucose dehydrogenase (NADH fluorescence); assay type: biochemical; conditions: read-out: POC (Percent of Controls); for inhibition at 25 µg/mL (stock): compound plates 20 μL/well of 25 μg/mL compound in 2.5% DMSO, relative to DMSO negative and UDP-xylose positive controls, higher POC = more inhibitory
T1 sequence (O60701 1-494): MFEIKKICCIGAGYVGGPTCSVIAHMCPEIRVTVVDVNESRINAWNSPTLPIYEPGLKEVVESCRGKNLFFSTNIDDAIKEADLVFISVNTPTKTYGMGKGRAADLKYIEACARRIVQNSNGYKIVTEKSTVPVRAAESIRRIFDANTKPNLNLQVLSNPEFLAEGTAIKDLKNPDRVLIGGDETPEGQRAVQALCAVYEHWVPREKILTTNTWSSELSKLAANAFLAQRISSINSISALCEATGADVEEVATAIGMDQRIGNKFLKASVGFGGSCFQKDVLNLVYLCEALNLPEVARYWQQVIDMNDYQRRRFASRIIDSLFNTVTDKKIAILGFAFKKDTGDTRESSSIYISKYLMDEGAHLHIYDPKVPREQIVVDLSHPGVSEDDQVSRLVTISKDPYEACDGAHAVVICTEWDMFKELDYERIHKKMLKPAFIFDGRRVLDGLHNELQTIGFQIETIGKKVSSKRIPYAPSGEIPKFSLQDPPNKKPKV

WT UGDH [2] = target: T2, WT UGDH (Homo sapiens, UniProt O60701); assay: UGDH inhibition assay (IC50, Ki), WT enzyme; assay type: biochemical; conditions: for IC50: 50 μM UDP-glc and 1 mM NAD+; for Mode of inhibition: UGDH
T2 sequence (O60701 1-494): T1 sequence (O60701 1-494)
Protocol: (§1) Ki values were determined by varying [UDP-glc] and holding NAD+ at saturating concentrations.
(§2) IC50 experiments were performed as described above (see e.g., Example 2).

[3] = target: T3, T325A-UGDH (inducible hexamer) (Homo sapiens, UniProt O60701, T325A); assay: UGDH inhibition assay (IC50, Ki), T325A mutant; assay type: biochemical
T3 sequence (O60701 1-494 T325A): T1 sequence (O60701 1-494) with T325A
Protocol: as §1, §2

WT UGDH [4] = target: T2, WT UGDH; assay: Thermal stability of UGDH, WT; assay type: binding
Protocol: (§3) FIG. 8A-8D show UDP-xylose effects on the thermal stability of WT, T325A (inducible hexamer), and T325D (obligate dimer) UGDH. […] Statistical analyses were performed using a two-way ANOVA with Bonferroni post tests on PRISM.

[5] = target: T4, T325A (inducible hexamer) UGDH (Homo sapiens, UniProt O60701, T325A); assay: Thermal stability of UGDH, T325A; assay type: binding
T4 sequence (O60701 1-494 T325A): T1 sequence (O60701 1-494) with T325A
Protocol: as §3

[6] = target: T5, T325D (obligate dimer) UGDH (Homo sapiens, UniProt O60701, T325D); assay: Thermal stability of UGDH, T325D; assay type: binding
T5 sequence (O60701 1-494 T325D): T1 sequence (O60701 1-494) with T325D
Protocol: as §3

UGDH T325A = target: T6, UGDH T325A (Homo sapiens, UniProt O60701, T325A); assay: Limited trypsin proteolysis of UGDH, T325A
T6 sequence (O60701 1-494 T325A): T1 sequence (O60701 1-494) with T325A
Protocol: (§4) UDP-xylose [20 μM] protected T325A apo from trypsin digestion (red star) and only slightly affected the other forms. […] Each assay contained 10 μg of enzyme, 10 ng Trypsin, and combinations of substrate, cofactor, and UDP-xylose, which was incubated 2.5 h, followed by SDS-PAGE.
(§5) The same procedures from above (see e.g., Example 7) were followed.

[7] = target: T7, T325D-UGDH (obligate dimer) (Homo sapiens, UniProt O60701, T325D); assay: UGDH inhibition assay (IC50, Ki), T325D mutant; assay type: biochemical; conditions: required 4 μM T325D instead of 1 μM
T7 sequence (O60701 1-494 T325D): T1 sequence (O60701 1-494) with T325D
Protocol: as §1, §2

WT UGDH [8] = target: T2, WT UGDH; assay: Limited trypsin proteolysis of UGDH, WT; conditions: WT ternary complexes; 500 μM
Protocol: as §4, §5

WT UGDH [9] = target: T2, WT UGDH; assay: UGDH kinetic characterization, WT; assay type: biochemical; conditions: substrate/cofactor varied
Excerpt: (§6) T325A and T325D are engineered inducible hexameric and obligate dimeric UGDH species, respectively.

T325A-UGDH = target: T8, T325A-UGDH (Homo sapiens, UniProt O60701, T325A); assay: UGDH kinetic characterization, T325A; assay type: biochemical; conditions: substrate/cofactor varied
T8 sequence (O60701 1-494 T325A): T1 sequence (O60701 1-494) with T325A
Excerpt: as §6

T325D-UGDH = target: T9, T325D-UGDH (Homo sapiens, UniProt O60701, T325D); assay: UGDH kinetic characterization, T325D; assay type: biochemical; conditions: substrate/cofactor varied
T9 sequence (O60701 1-494 T325D): T1 sequence (O60701 1-494) with T325D
Excerpt: as §6

UGDH T325D = target: T10, UGDH T325D (Homo sapiens, UniProt O60701, T325D); assay: Limited trypsin proteolysis of UGDH, T325D; conditions: 20 μM, 2.5 h
T10 sequence (O60701 1-494 T325D): T1 sequence (O60701 1-494) with T325D
Protocol: as §4, §5

inhibition at 25 µg/mL (stock) [1]: 86%
SMILES: CC(=O)NC(CC(=O)c1ccc(Cl)cc1Cl)C(Cl)(Cl)Cl (centres unmarked)

SMILES: O=C1C(Cl)=C(Cl)C(=O)C(Cl)=C1Cl
inhibition at 25 µg/mL [1]: 79%

IC50 (WT UGDH [2]; WT-UGDH): 261 ± 6.2 µM
Ki ([3]; varying [UDP-glc], NAD+ at saturating concentrations): 421 ± 118 µM
Effect on thermal stability (WT UGDH [4]; UDP-glcA complex with WT): decrease thermal stability
Effect on thermal stability ([5]; UDP-glcA complex with T325A): decrease thermal stability
Effect on thermal stability ([6]; UDP-glcA complex with T325D): decrease thermal stability
Effect on trypsin digestion (UGDH T325A; T325A with UDP-glcA and UDP-glcA with NADH, 750 μM): significantly affects
SMILES: CCC(C)(O)c1nnn(-c2nonc2N)c1C(C)(O)CC (centres unmarked) [Compound 1, 2,2′-[1-(4-amino-1,2,5-oxadiazol-3-yl)-1H-1,2,3-triazole-4,5-diyl]di(2-butanol)]

Mode of inhibition (WT UGDH [2]): allosteric inhibitor
IC50 (WT UGDH [2]; WT-UGDH): 146.8 ± 1.05 µM
IC50 [3]: 86.98 ± 0.03 µM
IC50 [7]: 799.4 ± 0.05 µM
Effect on thermal stability ([5]; T325A, all binary complexes except UDP-glucose): decreasing thermal stability
Effect on thermal stability ([6]; T325D, all binary complexes except UDP-glucose): decreasing thermal stability
Effect on trypsin digestion (WT UGDH [8]): significantly affects
Effect on trypsin digestion (UGDH T325A; T325A ternary complexes, 500 μM): significantly affects
SMILES: O=C(O)CCc1ccc(-c2cccs2)o1 [Compound 31, 3-[5-(2-thienyl)-2-furyl]propanoic acid]

SMILES: NC(=O)c1ccc[n+]([C@@H]2O[C@H](COP(=O)([O-])OP(=O)(O)OC[C@H]3O[C@@H](n4cnc5c(N)ncnc54)[C@H](O)[C@@H]3O)[C@@H](O)[C@H]2O)c1 [NAD+]
Km (WT UGDH [9]): 1030 ± 215 µM
VMAX (WT UGDH [9]): 206.1 ± 13.0 nmol/min/mg
Km (T325A-UGDH): 1680 ± 455 µM
VMAX (T325A-UGDH): 103 ± 8.5 nmol/min/mg
Km (T325D-UGDH): 1200 ± 290 µM
VMAX (T325D-UGDH): 38.0 ± 2.5 nmol/min/mg

SMILES: O=c1ccn([C@@H]2O[C@H](COP(=O)(O)OP(=O)(O)O[C@H]3OC[C@@H](O)[C@H](O)[C@H]3O)[C@@H](O)[C@H]2O)c(=O)[nH]1 [UDP-xylose, reference compound]
Mode of inhibition (WT UGDH [2]): competitive inhibitor
IC50 (WT UGDH [2]; WT-UGDH): 0.58 ± 0.09 µM
Ki (WT UGDH [2]; WT-UGDH, varying [UDP-glc], NAD+ at saturating concentrations): 2.67 ± 0.54 µM
Effect on thermal stability (WT UGDH [4]; NAD+ complex with WT): significantly increase thermal stability
Effect on thermal stability (WT UGDH [4]; apo WT): increased the thermal stability
Effect on thermal stability ([5]; NAD+ complex with T325A): significantly increase thermal stability
Effect on thermal stability ([5]; apo T325A): increased the thermal stability
Effect on thermal stability ([6]; NAD+ complex with T325D): significantly increase thermal stability
Effect on trypsin digestion (UGDH T325A; T325A apo, 20 μM, 2.5 h): protected
Effect on trypsin digestion (UGDH T325D; T325D apo and UDP-glc forms): did not affect
Effect on trypsin digestion (UGDH T325D; T325D complexes with NAD+, NADH, and UDP-glcA): significantly protected

inhibition at 25 µg/mL (stock) [1]: 101%
SMILES: CCC(C)(O)c1nnn(-c2nonc2N)c1C(C)(O)CC (centres unmarked) [drawing 178]

inhibition at 25 µg/mL (stock) [1]: 87%
SMILES: O=C(O)CCc1ccc(-c2cccs2)o1 [drawing 227]
